Key:
Assay type in all cases: in vivo
[1] = tested on: corn; assay: Soil treatment test for upland field (Test Example 2): phytotoxicity to corn; conditions: soil treatment before germination, examined after 3 weeks
Excerpt: (§1) Evaluation of phytotoxicity is shown in the following six grades, as compared with the condition of untreated control: • 0: normal growth • 1: little damaged • 2: low damaged • 3: medium damaged • 4: serious damaged • 5: complete killed.
(§2) Upland field soil was filled in 1/3,000 are pots, seeded with southern crabgrass (Digitaria ciliaris), common lambsquaters (Chenopodium album), slender amaranth (Amaranthus viridis), common purslane (Portulaca oleracea), velvetleaf (Abutilon theophrasti), wheat, corn and soybean. The seeds were covered up with the soil.
(§3) After placing the test pots in a glasshouse which was kept at an average temperature of 25° C. for 3 weeks, the herbicidal effect was examined.

[2] = tested on: common purslane (Portulaca oleracea); assay: Soil treatment test for upland field (Test Example 2): common purslane; conditions: soil treatment before germination, examined after 3 weeks
Excerpt: (§4) Evaluation of the herbicidal effect is shown in the following six grades, by comparing the condition of untreated control and growth inhibition (%): • 0: 0%-less than 20% • 1: 20%-less than 40% • 2: 40%-less than 60% • 3: 60%-less than 80% • 4: 80%-less than 100% • 5: 100%.
as §2
(§5) Wettable powders containing the object compounds (1) as identified in Table 1, which were formulated following Preparation Example 2, were diluted with adequate amount of water to secure the prescribed dose of the active ingredient, and uniformly sprayed onto the surface soil layer after the seeding and before germination of the weeds, at an application water of 15 liters per are.
as §3
(§6) Evaluations of the herbicidal effect and phytotoxicity were made in the manner similar to those in the above Test Example 1.

[3] = tested on: wheat; assay: Soil treatment test for upland field (Test Example 2): phytotoxicity to wheat; conditions: soil treatment before germination, examined after 3 weeks
Excerpt: as §1, §2, §3

[4] = tested on: velvetleaf; assay: Foliage treatment test for upland field (Test Example 3): velvetleaf; conditions: foliage treatment at 1.0-2.0 leaf stage of southern crabgrass, examined after 3 weeks
Excerpt: as §4
(§7) Compost mixed soil was filled in 1/3,000 are pots, seeded with southern crabgrass, common lambsquaters, slender amaranth, common purslane, velvetleaf, wheat, corn and soybean. The seeds were covered up with the soil and cultured in a glasshouse kept at 25° C. on the average.
(§8) Wettable powders containing the object compounds (1) as identified in Table 1, which were formulated following Preparation Example 2, were diluted with water to the prescribed dose of the active ingredient, and uniformly sprayed onto the weeds at 1.0-2.0 leaf stage of the southern crabgrass at an application water of 15 liters per are.
(§9) After placing the test pots in a grasshouse kept at 25° C. on the average for 3 weeks, the herbicidal effect was examined.
(§10) Evaluation of the herbicidal effect was conducted in the similar manner to Test Example 1.

[5] = tested on: common lambsquaters (Chenopodium album); assay: Soil treatment test for upland field (Test Example 2): common lambsquaters; conditions: soil treatment before germination, examined after 3 weeks
Excerpt: as §4, §2, §5, §3, §6

[6] = tested on: common purslane; assay: Foliage treatment test for upland field (Test Example 3): common purslane; conditions: foliage treatment at 1.0-2.0 leaf stage of southern crabgrass, examined after 3 weeks
Excerpt: as §4, §7, §8, §9, §10

[7] = tested on: soybean; assay: Foliage treatment test for upland field (Test Example 3): phytotoxicity to soybean; conditions: foliage treatment at 1.0-2.0 leaf stage of southern crabgrass, examined after 3 weeks
Protocol: as §1, §7, §9

[8] = tested on: velvetleaf (Abutilon theophrasti); assay: Soil treatment test for upland field (Test Example 2): velvetleaf; conditions: soil treatment before germination, examined after 3 weeks
Excerpt: as §4, §2, §5, §3, §6

[9] = tested on: southern crabgrass (Digitaria ciliaris); assay: Soil treatment test for upland field (Test Example 2): southern crabgrass; conditions: soil treatment before germination, examined after 3 weeks
Excerpt: as §4, §2, §5, §3, §6

[10] = tested on: slender amaranth; assay: Foliage treatment test for upland field (Test Example 3): slender amaranth; conditions: foliage treatment at 1.0-2.0 leaf stage of southern crabgrass, examined after 3 weeks
Excerpt: as §4, §7, §8, §9, §10

[11] = tested on: wheat; assay: Foliage treatment test for upland field (Test Example 3): phytotoxicity to wheat; conditions: foliage treatment at 1.0-2.0 leaf stage of southern crabgrass, examined after 3 weeks
Protocol: as §1, §7, §9

[12] = tested on: corn; assay: Foliage treatment test for upland field (Test Example 3): phytotoxicity to corn; conditions: foliage treatment at 1.0-2.0 leaf stage of southern crabgrass, examined after 3 weeks
Protocol: as §1, §7, §9

[13] = tested on: southern crabgrass; assay: Foliage treatment test for upland field (Test Example 3): southern crabgrass; conditions: foliage treatment at 1.0-2.0 leaf stage of southern crabgrass, examined after 3 weeks
Excerpt: as §4, §7, §8, §9, §10

[14] = tested on: slender amaranth (Amaranthus viridis); assay: Soil treatment test for upland field (Test Example 2): slender amaranth; conditions: soil treatment before germination, examined after 3 weeks
Excerpt: as §4, §2, §5, §3, §6

[15] = tested on: soybean; assay: Soil treatment test for upland field (Test Example 2): phytotoxicity to soybean; conditions: soil treatment before germination, examined after 3 weeks
Excerpt: as §1, §2, §3

[16] = tested on: common lambsquaters; assay: Foliage treatment test for upland field (Test Example 3): common lambsquaters; conditions: foliage treatment at 1.0-2.0 leaf stage of southern crabgrass, examined after 3 weeks
Excerpt: as §4, §7, §8, §9, §10

Row | Structure (SMILES) | Phytotoxicity corn ([1]; dose 2.5 g ai/a) | Phytotoxicity corn ([1]; dose 5 g ai/a) | Herbicidal Effect common purslane ([2]; dose 2.5 g ai/a) | Herbicidal Effect common purslane ([2]; dose 5 g ai/a) | Phytotoxicity wheat ([3]; dose 2.5 g ai/a) | Phytotoxicity wheat ([3]; dose 5 g ai/a) | Herbicidal Effect velvetleaf ([4]; dose 2.5 g ai/a) | Herbicidal Effect velvetleaf ([4]; dose 5 g ai/a) | Herbicidal Effect common lambsquaters ([5]; dose 2.5 g ai/a) | Herbicidal Effect common lambsquaters ([5]; dose 5 g ai/a) | Herbicidal Effect common purslane ([6]; dose 2.5 g ai/a) | Herbicidal Effect common purslane ([6]; dose 5 g ai/a) | Herbicidal Effect velvetleaf ([8]; dose 2.5 g ai/a) | Herbicidal Effect velvetleaf ([8]; dose 5 g ai/a) | Herbicidal Effect southern crabgrass ([9]; dose 2.5 g ai/a) | Herbicidal Effect southern crabgrass ([9]; dose 5 g ai/a) | Herbicidal Effect slender amaranth ([14]; dose 2.5 g ai/a) | Herbicidal Effect slender amaranth ([14]; dose 5 g ai/a) | Phytotoxicity soybean ([15]; dose 2.5 g ai/a) | Phytotoxicity soybean ([15]; dose 5 g ai/a) | other results
1 | COCC(=Cc1cccc(C(F)(F)F)c1)c1nc2cc(OC(F)(F)F)ccc2o1 [Compound 46] | 0 | 1 | 5 (100%) | 5 (100%) | 0 | 0 | 4 (80%-less than 100%) | 5 (100%) | 5 (100%) | 5 (100%) | 5 (100%) | 5 (100%) | 4 (80%-less than 100%) | 5 (100%) | 4 (80%-less than 100%) | 5 (100%) | 5 (100%) | 5 (100%) | 0 | 1 | Phytotoxicity soybean ([7]; dose 2.5 g ai/a): 1; Phytotoxicity soybean ([7]; dose 5 g ai/a): 1; Herbicidal Effect slender amaranth ([10]; dose 2.5 g ai/a): 5 (100%); Herbicidal Effect slender amaranth ([10]; dose 5 g ai/a): 5 (100%); Phytotoxicity wheat ([11]; dose 2.5 g ai/a): 0; Phytotoxicity wheat ([11]; dose 5 g ai/a): 1; Phytotoxicity corn ([12]; dose 2.5 g ai/a): 0; Phytotoxicity corn ([12]; dose 5 g ai/a): 1; Herbicidal Effect southern crabgrass ([13]; dose 2.5 g ai/a): 4 (80%-less than 100%); Herbicidal Effect southern crabgrass ([13]; dose 5 g ai/a): 5 (100%); Herbicidal Effect Common lambsquatters ([16]; dose 2.5 g ai/a): 5 (100%); Herbicidal Effect Common lambsquatters ([16]; dose 5 g ai/a): 5 (100%)
2 | CSCC(=Cc1cccc(C(F)(F)F)c1)c1nc2cc(C(F)(F)F)ccc2o1 [Compound 82] | 0 | 0 | 5 (100%) | 5 (100%) | 0 | 0 | 2 (40%-less than 60%) | 3 (60%-less than 80%) | 5 (100%) | 5 (100%) | 5 (100%) | 5 (100%) | 2 (40%-less than 60%) | 2 (40%-less than 60%) | 3 (60%-less than 80%) | 3 (60%-less than 80%) | 5 (100%) | 5 (100%) | 0 | 0 | Phytotoxicity soybean ([7]; dose 2.5 g ai/a): 1; Phytotoxicity soybean ([7]; dose 5 g ai/a): 1; Herbicidal Effect slender amaranth ([10]; dose 2.5 g ai/a): 5 (100%); Herbicidal Effect slender amaranth ([10]; dose 5 g ai/a): 5 (100%); Phytotoxicity wheat ([11]; dose 2.5 g ai/a): 0; Phytotoxicity wheat ([11]; dose 5 g ai/a): 0; Phytotoxicity corn ([12]; dose 2.5 g ai/a): 0; Phytotoxicity corn ([12]; dose 5 g ai/a): 1; Herbicidal Effect southern crabgrass ([13]; dose 2.5 g ai/a): 4 (80%-less than 100%); Herbicidal Effect southern crabgrass ([13]; dose 5 g ai/a): 4 (80%-less than 100%); Herbicidal Effect Common lambsquatters ([16]; dose 2.5 g ai/a): 5 (100%); Herbicidal Effect Common lambsquatters ([16]; dose 5 g ai/a): 5 (100%)
3 | CCSCC(=Cc1cccc(C(F)(F)F)c1)c1nc2cc(C(F)(F)F)ccc2o1 [Compound 84] | 0 | 0 | 5 (100%) | 5 (100%) | 0 | 0 | 2 (40%-less than 60%) | 3 (60%-less than 80%) | 5 (100%) | 5 (100%) | 4 (80%-less than 100%) | 5 (100%) | 2 (40%-less than 60%) | 2 (40%-less than 60%) | 3 (60%-less than 80%) | 3 (60%-less than 80%) | 4 (80%-less than 100%) | 5 (100%) | 0 | 0 | Phytotoxicity soybean ([7]; dose 2.5 g ai/a): 0; Phytotoxicity soybean ([7]; dose 5 g ai/a): 0; Herbicidal Effect slender amaranth ([10]; dose 2.5 g ai/a): 5 (100%); Herbicidal Effect slender amaranth ([10]; dose 5 g ai/a): 5 (100%); Phytotoxicity wheat ([11]; dose 2.5 g ai/a): 0; Phytotoxicity wheat ([11]; dose 5 g ai/a): 0; Phytotoxicity corn ([12]; dose 2.5 g ai/a): 0; Phytotoxicity corn ([12]; dose 5 g ai/a): 1; Herbicidal Effect southern crabgrass ([13]; dose 2.5 g ai/a): 4 (80%-less than 100%); Herbicidal Effect southern crabgrass ([13]; dose 5 g ai/a): 4 (80%-less than 100%); Herbicidal Effect Common lambsquatters ([16]; dose 2.5 g ai/a): 4 (80%-less than 100%); Herbicidal Effect Common lambsquatters ([16]; dose 5 g ai/a): 5 (100%)
4 | COCC(=Cc1cccc(C(F)(F)F)c1)c1nc2cc(C#N)c(F)cc2o1 [Compound 117] | – | – | – | – | – | – | 4 (80%-less than 100%) | 5 (100%) | – | – | 5 (100%) | 5 (100%) | – | – | – | – | – | – | – | – | Phytotoxicity soybean ([7]; dose 2.5 g ai/a): 0; Phytotoxicity soybean ([7]; dose 5 g ai/a): 1; Herbicidal Effect slender amaranth ([10]; dose 2.5 g ai/a): 5 (100%); Herbicidal Effect slender amaranth ([10]; dose 5 g ai/a): 5 (100%); Phytotoxicity wheat ([11]; dose 2.5 g ai/a): 0; Phytotoxicity wheat ([11]; dose 5 g ai/a): 0; Phytotoxicity corn ([12]; dose 2.5 g ai/a): 0; Phytotoxicity corn ([12]; dose 5 g ai/a): 1; Herbicidal Effect southern crabgrass ([13]; dose 2.5 g ai/a): 4 (80%-less than 100%); Herbicidal Effect southern crabgrass ([13]; dose 5 g ai/a): 5 (100%); Herbicidal Effect Common lambsquatters ([16]; dose 2.5 g ai/a): 5 (100%); Herbicidal Effect Common lambsquatters ([16]; dose 5 g ai/a): 5 (100%)
5 | CCOCC(=Cc1cccc(C(F)(F)F)c1)c1nc2cc(F)c(F)cc2o1 [Compound 127] | 0 | 0 | 5 (100%) | 5 (100%) | 0 | 0 | – | – | 5 (100%) | 5 (100%) | – | – | 3 (60%-less than 80%) | 5 (100%) | 4 (80%-less than 100%) | 5 (100%) | 5 (100%) | 5 (100%) | 0 | 0 | –
6 | CCOCC(=Cc1cccc(C(F)(F)F)c1)c1nc2cc(F)c(C(F)(F)F)cc2o1 [Compound 141] | 0 | 0 | 5 (100%) | 5 (100%) | 0 | 1 | – | – | 5 (100%) | 5 (100%) | – | – | 3 (60%-less than 80%) | 5 (100%) | 4 (80%-less than 100%) | 5 (100%) | 5 (100%) | 5 (100%) | 0 | 0 | –
